In the assay the target is Protein farnesyltransferase subunit beta/geranylgeranyltransferase type-1 subunit alpha (Homo sapiens, UniProt P49354+P49356). The experiment in a line: FTase Scintillation Proximity Assay. As to conditions: pH 7.5; 22 °C. How it is done: Compounds were tested as inhibitors of FTase in vitro using purified human enzyme to catalyze the reaction between [3H] FPP and a biotinylated peptide substrate. Reaction was terminated by addition of streptavidin scintillation proximity assay beads (Amersham), and the mixtures were subsequently analyzed by scintillation counting.
(SPA uses beads or plates that emit light when radiolabelled molecules are held near them.)

“And” between values parts separate entries of the source, which are not always exact repeats. Equal values may be shown once.

What is called IC50 is the concentration at which inhibition is half-maximal.

Consider `Cn1cncc1[C@@](N)(c1ccc(Cl)cc1)c1ccc2c(c1)c(-c1cccc(Cl)c1)cc(=O)n2C` (racemic) [Racemic mixture], for which the IC50 is 7.9 nM and 0.86 nM.

Values taken from BindingDB's records for PubMed 11196150 (Janssen Research Foundation, 2001).
